Source: ChEMBL document CHEMBL5518225, “Mechanism-Based Macrocyclic Inhibitors of Serine Proteases” (J Med Chem, 2024)

Assays:
[1] = Metabolic stability in human plasma assessed as compound remaining measured at 2 hrs; type: ADME, cell-free; details: read-out: Stability
[2] = Metabolic stability in human plasma assessed as half life; type: ADME, cell-free
Serine protease hepsin = Serine protease hepsin (Homo sapiens, UniProt P05981); assay: Inhibition of C-terminal 10-His tagged human recombinant hepsin (Arg45 to Leu417 residues) using Boc-QAR-AMC as substrate preincubated for 30 mins followed by substrate addition and measured by fluorescence based analysis
[3] = Metabolic stability in mouse plasma assessed as compound remaining measured at 2 hrs; type: ADME, cell-free; details: read-out: Stability
[4] = Metabolic stability in mouse plasma assessed as half life; type: ADME, cell-free
Homo sapiens [5] = species: Homo sapiens; assay: Selectivity index, ratio of IC50 for inhibition of N-terminal Met/6His tagged human recombinant matriptase catalytic domain (Gly596 to Val855 residues) to IC50 for inhibition of N-terminal 6His-tagged human recombinant TMPRSS2 (106 to 492 residues)
Homo sapiens [6] = species: Homo sapiens; assay: Selectivity index, ratio of IC50 for inhibition of C-terminal 10-His tagged human recombinant HGFA (Gln36 to Ser655 residues) to IC50 for inhibition of N-terminal 6His-tagged human recombinant TMPRSS2 (106 to 492 residues)
[7] = target: T1, Hepatocyte growth factor activator serine protease (Homo sapiens, UniProt Q04756); assay: Inhibition of C-terminal 10-His tagged human recombinant HGFA (Gln36 to Ser655 residues) using Boc-QLR-AMC as substrate preincubated for 30 mins followed by substrate addition and measured by fluorescence based analysis
T1 sequence (Q04756 whole entry): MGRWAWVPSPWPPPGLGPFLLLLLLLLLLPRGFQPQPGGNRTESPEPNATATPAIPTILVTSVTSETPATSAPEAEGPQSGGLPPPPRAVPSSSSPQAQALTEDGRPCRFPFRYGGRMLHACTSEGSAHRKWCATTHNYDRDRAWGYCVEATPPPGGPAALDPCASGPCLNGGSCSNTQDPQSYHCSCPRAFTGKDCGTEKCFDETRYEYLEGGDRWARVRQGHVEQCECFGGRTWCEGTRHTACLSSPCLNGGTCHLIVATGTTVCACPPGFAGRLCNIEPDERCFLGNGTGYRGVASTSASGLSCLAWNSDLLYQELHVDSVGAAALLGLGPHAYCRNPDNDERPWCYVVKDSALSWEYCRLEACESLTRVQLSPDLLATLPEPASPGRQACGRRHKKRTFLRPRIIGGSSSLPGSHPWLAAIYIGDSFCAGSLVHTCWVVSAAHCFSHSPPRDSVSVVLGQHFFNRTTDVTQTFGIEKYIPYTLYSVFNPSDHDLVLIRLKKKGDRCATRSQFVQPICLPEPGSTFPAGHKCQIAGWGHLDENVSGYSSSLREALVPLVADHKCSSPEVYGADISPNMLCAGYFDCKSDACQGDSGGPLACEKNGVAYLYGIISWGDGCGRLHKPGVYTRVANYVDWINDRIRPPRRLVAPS

[8] = target: Transmembrane protease serine 2 (Homo sapiens, UniProt O15393); assay: Inhibition of N-terminal 6His-tagged human recombinant TMPRSS2 (106 to 492 residues) using Boc-QAR-AMC as substrate preincubated for 30 mins followed by substrate addition and measured by fluorescence based analysis
Homo sapiens [9] = species: Homo sapiens; assay: Selectivity index, ratio of IC50 for inhibition of C-terminal 10-His tagged human recombinant hepsin (Arg45 to Leu417 residues) to IC50 for inhibition of N-terminal 6His-tagged human recombinant TMPRSS2 (106 to 492 residues)
[10] = target: T2, Suppressor of tumorigenicity 14 protein (Homo sapiens, UniProt Q9Y5Y6); assay: Inhibition of N-terminal Met/6His tagged human recombinant matriptase catalytic domain (Gly596 to Val855 residues) using Boc-QAR-AMC as substrate preincubated for 30 mins followed by substrate addition and measured by fluorescence based analysis
T2 sequence (Q9Y5Y6 whole entry): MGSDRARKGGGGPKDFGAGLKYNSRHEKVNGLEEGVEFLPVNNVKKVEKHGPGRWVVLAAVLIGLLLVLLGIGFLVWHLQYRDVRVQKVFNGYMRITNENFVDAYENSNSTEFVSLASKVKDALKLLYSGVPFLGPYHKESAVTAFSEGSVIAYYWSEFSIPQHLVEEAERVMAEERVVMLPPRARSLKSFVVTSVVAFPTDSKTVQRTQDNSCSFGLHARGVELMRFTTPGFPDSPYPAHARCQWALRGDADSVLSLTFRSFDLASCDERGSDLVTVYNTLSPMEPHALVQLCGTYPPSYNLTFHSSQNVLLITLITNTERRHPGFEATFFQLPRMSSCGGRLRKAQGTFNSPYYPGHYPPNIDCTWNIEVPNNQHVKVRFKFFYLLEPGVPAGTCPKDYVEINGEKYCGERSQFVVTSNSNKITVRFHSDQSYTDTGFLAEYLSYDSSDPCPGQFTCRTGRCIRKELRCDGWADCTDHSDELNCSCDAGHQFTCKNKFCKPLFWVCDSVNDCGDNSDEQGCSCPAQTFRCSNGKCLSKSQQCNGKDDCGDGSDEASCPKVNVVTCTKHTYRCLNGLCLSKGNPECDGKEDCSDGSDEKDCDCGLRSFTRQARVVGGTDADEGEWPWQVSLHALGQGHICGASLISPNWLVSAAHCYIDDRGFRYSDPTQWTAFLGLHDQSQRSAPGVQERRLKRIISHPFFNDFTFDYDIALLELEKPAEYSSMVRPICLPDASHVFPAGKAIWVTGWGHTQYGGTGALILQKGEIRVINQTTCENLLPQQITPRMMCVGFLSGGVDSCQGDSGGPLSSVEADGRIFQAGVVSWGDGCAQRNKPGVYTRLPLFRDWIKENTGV

[11] = Metabolic stability in mouse plasma assessed as drug degradation measured after 2 hrs; type: ADME, cell-free
[12] = Elimination half life in male CD-1 mouse at 13 to 20 mg/kg, ip administered as single dose and measured upto 24 hrs by LC-MS/MS analysis; type: ADME, organism-based; details: in vivo, dose 13-20 mg/kg
[13] = target: Coagulation factor X, Homo sapiens (UniProt P00742); assay: Inhibition of factor Xa (unknown origin) using Bz-lle-Glu-Gly-Arg-pNA as chromogenic substrate preincubated for 30 mins followed by substrate addition by absorbance based analysis
[14] = Drug uptake in male CD-1 mouse at 13 to 20 mg/kg, ip administered as single dose and measured upto 24 hrs by LC-MS/MS analysis; type: ADME, organism-based; details: in vivo, dose 13-20 mg/kg
[15] = Half life in male CD-1 mouse at 13 to 20 mg/kg, ip administered as single dose and measured upto 24 hrs by LC-MS/MS analysis; type: ADME, organism-based; details: in vivo, dose 13-20 mg/kg

Structure (SMILES) | remaining at 2 h [1] [%] | t1/2 [2] [h] | IC50 (Serine protease hepsin) [nM] | remaining at 2 h [3] [%] | t1/2 [4] [h] | IC50 [8] [nM] | IC50 [10] [nM] | IC50 [13] [nM] | other results
CC(=O)N[C@H]1Cc2ccc(cc2)OCCCC[C@@H](C(=O)N[C@@H](CCCNC(=N)N)C(=O)c2nc3ccccc3s2)NC(=O)[C@H](Cc2c[nH]c3ccccc23)NC1=O | 67 | 3.82 | 2.8 | 78 | > 4.82 |  |  |  | 
CC(=O)N[C@H]1Cc2ccc(cc2)Oc2ccc(cc2)C[C@@H](C(=O)N[C@@H](CCCNC(=N)N)C(=O)c2nc3ccccc3s2)NC(=O)[C@H](CC(C)C)NC1=O |  |  | 7.5 |  |  | 1.2 | 180 |  | Ratio IC50 (Homo sapiens [5]): 144; Ratio IC50 (Homo sapiens [6]): 200; IC50 [7]: 250 nM; Ratio IC50 (Homo sapiens [9]): 6
CC(=O)N[C@H]1Cc2ccc(cc2)OCCCC[C@@H](C(=O)N[C@@H](CCCNC(=N)N)C(=O)c2nc3ccccc3s2)NC(=O)[C@@H](Cc2c[nH]c3ccccc23)NC1=O | 53 | 1.95 |  | 100 |  | 3.7 |  |  | Stability [11]: Stable
CC(=O)N[C@H]1Cc2ccc(cc2)OC/C=C/C[C@@H](C(=O)N[C@@H](CCCNC(=N)N)C(=O)c2nc3ccccc3s2)NC(=O)[C@H](CC(C)C)NC1=O | 77 | > 4.82 |  | 86 | > 4.82 | 1.2 | 3.4 | > 20000 | IC50 [7]: 26 nM; beta t1/2 [12]: < 0.5 h
CC(=O)N[C@H]1CCCCn2cc(nn2)C[C@H](C(=O)N[C@@H](CCCNC(=N)N)C(=O)c2nc3ccccc3s2)NC(=O)[C@H](CC(C)C)NC1=O | 83 | > 4.82 |  | 82 | > 4.82 |  |  |  | 
CC(=O)N[C@H]1Cc2ccc(cc2)OCCCC[C@@H](C(=O)N[C@@H](CCCNC(=N)N)C(=O)c2nc3ccccc3s2)NC(=O)[C@H](CC(C)C)NC1=O | 79 | > 4.82 |  | 98 | > 4.82 |  |  |  | Stability [11]: Stable
CC(=O)N[C@H]1Cc2ccc(cc2)OCCCC[C@@H](C(=O)N[C@@H](CCCNC(=N)N)C(=O)c2nc3ccccc3s2)NC(=O)[C@H](Cc2ccccc2)NC1=O | 65 | 3.15 |  | 80 | > 4.82 | 16 |  |  | 
CC(=O)N[C@H]1Cc2ccc(cc2)OC/C=C\CNC(=O)C[C@@H](C(=O)N[C@@H](CCCNC(=N)N)C(=O)c2nc3ccccc3s2)NC(=O)[C@H](CC(C)C)NC1=O | 81 | > 4.82 |  | 95 | > 4.82 | 22 | 54 | > 20000 | Stability [11]: Stable
CC(=O)N[C@H]1Cc2ccc(cc2)OC/C=C\CNC(=O)CC[C@@H](C(=O)N[C@@H](CCCNC(=N)N)C(=O)c2nc3ccccc3s2)NC(=O)[C@H](CC(C)C)NC1=O | 76 | > 4.82 |  | 66 | 3.93 |  |  | > 20000 | 
CC(=O)N[C@H]1Cc2cccc(c2)Oc2ccc(cc2)C[C@@H](C(=O)N[C@@H](CCCNC(=N)N)C(=O)c2nc3ccccc3s2)NC(=O)[C@H](CC(C)C)NC1=O |  |  |  |  |  | 15 |  |  | 
CC(=O)N[C@H]1Cc2cn(nn2)CCCC[C@H](C(=O)N[C@@H](CCCNC(=N)N)C(=O)c2nc3ccccc3s2)NC(=O)[C@H](CC(C)C)NC1=O | 85 | > 4.82 |  | 83 | > 4.82 |  |  |  | 
CC(=O)N[C@H]1C/C=C/COc2ccc(cc2)C[C@@H](C(=O)N[C@@H](CCCNC(=N)N)C(=O)c2nc3ccccc3s2)NC(=O)[C@H](CC(C)C)NC1=O | 78 | 4.77 | 20 | 84 | > 4.82 | 14 | 14 | > 20000 | IC50 [7]: > 20000 nM
CC(=O)N[C@H]1Cc2ccc(cc2)Oc2cccc(c2)C[C@@H](C(=O)N[C@@H](CCCNC(=N)N)C(=O)c2nc3ccccc3s2)NC(=O)[C@H](CC(C)C)NC1=O |  |  | 0.2 |  |  |  |  | 13000 | Drug uptake [14]: Active; t1/2 [15]: 4.5 h
